Laboratory results: US8889874B2, “Imidazolone-chalcone derivatives as potential anticancer agent and process for the preparation thereof” (Council of Scientific and Industrial Research, priority 2010, dated 2014)
Where two headings read alike, the source gives them in different places.

Assays:
Type in all cases: cell-based, human
SNB-19 (CNS) = assay: NCI anticancer screen, SRB assay, 48 h; conditions: Homo sapiens
How it was run: (§1)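 Sulforhodamine B protein assay read cell growth after 48 h of continuous compound exposure. Dose-response curves per cell line used at least five 10-fold-diluted concentrations, within a panel of fifty-three human lines from nine tumour types.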

SF-539 (CNS) = assay: NCI anticancer screen, SRB assay, 48 h; conditions: Homo sapiens
How it was run: as §1

SK-MEL-2 (melanoma) = assay: NCI anticancer screen, SRB assay, 48 h; conditions: Homo sapiens
How it was run: as §1

[1] = test system: HOP-62 (non-small cell lung); assay: NCI anticancer screen, SRB assay, 48 h; conditions: Homo sapiens
How it was run: as §1

U251 (CNS) = assay: NCI anticancer screen, SRB assay, 48 h; conditions: Homo sapiens
How it was run: as §1

[2] = test system: HOP-92 (non-small cell lung); assay: NCI anticancer screen, SRB assay, 48 h; conditions: Homo sapiens
How it was run: as §1

RXF 393 (renal) = assay: NCI anticancer screen, SRB assay, 48 h; conditions: Homo sapiens
How it was run: as §1

SK-MEL-28 (melanoma) = assay: NCI anticancer screen, SRB assay, 48 h; conditions: Homo sapiens
How it was run: as §1

NCI/ADR-RES (ovarian) = assay: NCI anticancer screen, SRB assay, 48 h; conditions: Homo sapiens, NCI/ADR-RES
How it was run: as §1

SN12C (renal) = assay: NCI anticancer screen, SRB assay, 48 h; conditions: Homo sapiens, SN12C
How it was run: as §1

UO-31 (renal) = assay: NCI anticancer screen, SRB assay, 48 h; conditions: Homo sapiens
How it was run: as §1

M14 (melanoma) = assay: NCI anticancer screen, SRB assay, 48 h; conditions: Homo sapiens
How it was run: as §1

OVCAR-5 (ovarian) = assay: NCI anticancer screen, SRB assay, 48 h; conditions: Homo sapiens
How it was run: as §1

COLO 205 (colon) = assay: NCI anticancer screen, SRB assay, 48 h; conditions: Homo sapiens, COLO 205
How it was run: as §1

[3] = test system: NCI-H460 (non-small cell lung); assay: NCI anticancer screen, SRB assay, 48 h; conditions: Homo sapiens
How it was run: as §1

ACHN (renal) = assay: NCI anticancer screen, SRB assay, 48 h; conditions: Homo sapiens
How it was run: as §1

HCC-2998 (colon) = assay: NCI anticancer screen, SRB assay, 48 h; conditions: Homo sapiens
How it was run: as §1

[4] = test system: Melanoma cancer cell lines; assay: NCI anticancer screen, SRB assay, panel summary; conditions: for GI50: Homo sapiens
How it was run: as §1

Renal cancer cell lines = assay: NCI anticancer screen, SRB assay, panel summary; conditions: Homo sapiens
How it was run: as §1

Breast cancer cell lines = assay: NCI anticancer screen, SRB assay, panel summary; conditions: Homo sapiens
How it was run: as §1

[5] = test system: Prostate cancer cell lines; assay: NCI anticancer screen, SRB assay, panel summary
How it was run: as §1

[6] = test system: Non-small cell lung cancer cell lines; assay: NCI anticancer screen, SRB assay, panel summary; conditions: Homo sapiens
How it was run: as §1

[7] = test system: Leukemia cancer cell lines; assay: NCI anticancer screen, SRB assay, panel summary; conditions: Homo sapiens
How it was run: as §1

Colon cancer cell lines = assay: NCI anticancer screen, SRB assay, panel summary; conditions: for GI50: Homo sapiens
How it was run: as §1

CNS cancer cell lines = assay: NCI anticancer screen, SRB assay, panel summary; conditions: for GI50: Homo sapiens
How it was run: as §1

[8] = test system: Ovarian cancer cell lines; assay: NCI anticancer screen, SRB assay, panel summary; conditions: Homo sapiens
How it was run: as §1

[9] = 48 h exposure, SRB, read-out: GI50
[10] = read-out: pGI50 (-log of molar concentration causing 50% inhibition of net cell growth) (converted)

COc1cc(/C=C/C(=O)c2cccc(-n3cc(-c4ccc(Cl)cc4)[nH]c3=O)c2)ccc1O [3f, 4-(4-chlorophenyl)-1-3-[(E)-3-(4-hydroxy-3-methoxyphenyl)-2-propenoyl]phenyl-2,3-dihydro-1H-2-imidazolone]
GI50 (SNB-19 (CNS); [9]): 3.17 µM | GI50 (SNB-19 (CNS); [10]): 3.16 µM | GI50 (SF-539 (CNS); [9]): 1.78 µM | GI50 (SF-539 (CNS); [10]): 1.78 µM | GI50 (SK-MEL-2 (melanoma); [9]): 3.66 µM | GI50 (SK-MEL-2 (melanoma); [10]): 3.63 µM | GI50 [1, 9]: 2.84 µM | GI50 [1, 10]: 2.82 µM | GI50 (U251 (CNS); U-251, 48 h exposure, SRB, read-out: GI50): 2.23 µM | GI50 (U251 (CNS); U-251, read-out: pGI50 (-log of molar concentration causing 50% inhibition of net cell growth) (converted)): 2.24 µM | GI50 [2, 9]: 1.26 µM | GI50 [2, 10]: 1.26 µM | GI50 (RXF 393 (renal); RXF 393, 48 h exposure, SRB, read-out: GI50): 6.4 µM | GI50 (RXF 393 (renal); RXF-393, read-out: pGI50 (-log of molar concentration causing 50% inhibition of net cell growth) (converted)): 6.46 µM | GI50 (SK-MEL-28 (melanoma); [9]): 2.06 µM | GI50 (SK-MEL-28 (melanoma); [10]): 2.04 µM | GI50 (NCI/ADR-RES (ovarian); NCl/ADR-RES, 48 h exposure, SRB, read-out: GI50): 2.28 µM | GI50 (NCI/ADR-RES (ovarian); [10]): 2.29 µM | GI50 (SN12C (renal); SN 12C, read-out: pGI50 (-log of molar concentration causing 50% inhibition of net cell growth) (converted)): 2.88 µM | GI50 (SN12C (renal); [9]): 2.87 µM | GI50 (UO-31 (renal); [9]): 1.67 µM | GI50 (UO-31 (renal); [10]): 1.66 µM | GI50 (M14 (melanoma); [9]): 2.86 µM | GI50 (M14 (melanoma); [10]): 2.88 µM | GI50 (OVCAR-5 (ovarian); [9]): 2 µM | GI50 (OVCAR-5 (ovarian); [10]): 2 µM | GI50 (COLO 205 (colon); COLO205, read-out: pGI50 (-log of molar concentration causing 50% inhibition of net cell growth) (converted)): 3.39 µM | GI50 (COLO 205 (colon); [9]): 3.4 µM | GI50 [3, 9]: 3.9 µM | GI50 [3, 10]: 3.89 µM | GI50 (ACHN (renal); [9]): 2.19 µM | GI50 (ACHN (renal); [10]): 2.19 µM | GI50 (HCC-2998 (colon); [9]): 1.85 µM | GI50 (HCC-2998 (colon); [10]): 1.86 µM | GI50 ([4]; Melanoma panel, log of concentration in mol/L causing 50% inhibition of net cell growth, read-out: mean graph midpoint (MG_MID) of Log10 GI50 (converted)): 2.82 µM | GI50 ([4]; nine melanoma cancer cell lines, exposure at least 48 hrs, read-out: GI50, range over the panel): 1.63 to 8.69 µM | mean graph midpoint (MG_MID) of Log10 LC50 ([4]; Melanoma panel, log of concentration leading to 50% net cell death): 4.32 | GI50 (Renal cancer cell lines; Renal panel, log of concentration in mol/L causing 50% inhibition of net cell growth, read-out: mean graph midpoint (MG_MID) of Log10 GI50 (converted)): 2.95 µM | LC50 (Renal cancer cell lines; Renal panel, log of concentration leading to 50% net cell death, read-out: mean graph midpoint (MG_MID) of Log10 LC50 (converted)): 63.1 µM | GI50 (Renal cancer cell lines; eight renal cancer cell lines, exposure at least 48 hrs, read-out: GI50, range over the panel): 1.67 to 6.4 µM | GI50 (Breast cancer cell lines; Breast panel, log of concentration in mol/L causing 50% inhibition of net cell growth, read-out: mean graph midpoint (MG_MID) of Log10 GI50 (converted)): 3.24 µM | LC50 (Breast cancer cell lines; Breast panel, log of concentration leading to 50% net cell death, read-out: mean graph midpoint (MG_MID) of Log10 LC50 (converted)): 95.5 µM | GI50 (Breast cancer cell lines; five breast cancer cell lines, exposure at least 48 hrs, read-out: GI50, range over the panel): 2.3 to 4.67 µM | GI50 ([5]; Homo sapiens, log of concentration in mol/L causing 50% inhibition of net cell growth, read-out: mean graph midpoint (MG_MID) of Log10 GI50 (converted)): 1.95 µM | LC50 ([5]; Homo sapiens, log of concentration leading to 50% net cell death, read-out: mean graph midpoint (MG_MID) of Log10 LC50 (converted)): 66.1 µM | mean graph midpoint (MG_MID) of Log10 TGI ([5]; log of concentration resulting in total inhibition of net cell growth): 5.20 | GI50 ([6]; Non-small cell lung panel, log of concentration in mol/L causing 50% inhibition of net cell growth, read-out: mean graph midpoint (MG_MID) of Log10 GI50 (converted)): 3.55 µM | LC50 ([6]; Non-small cell lung panel, log of concentration leading to 50% net cell death, read-out: mean graph midpoint (MG_MID) of Log10 LC50 (converted)): 85.1 µM | GI50 ([6]; nine non-small cell lung cancer cell lines, exposure at least 48 hrs, read-out: GI50, range over the panel): 1.26 to 9.61 µM | GI50 ([7]; Leukemia panel, log of concentration in mol/L causing 50% inhibition of net cell growth, read-out: mean graph midpoint (MG_MID) of Log10 GI50 (converted)): 1.38 µM | LC50 ([7]; Leukemia panel, log of concentration leading to 50% net cell death, read-out: mean graph midpoint (MG_MID) of Log10 LC50 (converted)): 55 µM | GI50 ([7]; two leukemia cancer cell lines (RPMI-8226 and K-562), exposure at least 48 hrs, read-out: GI50, range over the panel): 1.33 to 1.42 µM | mean graph midpoint (MG_MID) of Log10 LC50 (Colon cancer cell lines; Colon panel, log of concentration leading to 50% net cell death): 4.53 | GI50 (Colon cancer cell lines; Colon panel, log of concentration in mol/L causing 50% inhibition of net cell growth, read-out: mean graph midpoint (MG_MID) of Log10 GI50 (converted)): 2.04 µM | GI50 (Colon cancer cell lines; seven colon cancer cell lines, exposure at least 48 hrs, read-out: GI50, range over the panel): 1.46 to 3.4 µM | mean graph midpoint (MG_MID) of Log10 LC50 (CNS cancer cell lines; CNS panel, log of concentration leading to 50% net cell death): 4.29 | GI50 (CNS cancer cell lines; CNS panel, log of concentration in mol/L causing 50% inhibition of net cell growth, read-out: mean graph midpoint (MG_MID) of Log10 GI50 (converted)): 3.16 µM | GI50 (CNS cancer cell lines; six CNS cancer cell lines, exposure at least 48 hrs, read-out: GI50, range over the panel): 1.78 to 10.5 µM | GI50 ([8]; Ovarian panel, log of concentration in mol/L causing 50% inhibition of net cell growth, read-out: mean graph midpoint (MG_MID) of Log10 GI50 (converted)): 2.75 µM | LC50 ([8]; Ovarian panel, log of concentration leading to 50% net cell death, read-out: mean graph midpoint (MG_MID) of Log10 LC50 (converted)): 43.7 µM | GI50 ([8]; six ovarian cancer cell lines, exposure at least 48 hrs, read-out: GI50, range over the panel): 1.56 to 4.64 µM
